Measured values published in patent publication US20220168298A1, “CANCER TREATMENT” (Janssen Pharmaceutica NV, priority 2019, published 2022).
Like-named read-outs stand apart in the source and are kept apart here.

[1] = Regimen 2 6 mg continuous (n = 78)

Protocol: Study treatment is administered on 28-day cycles. Prior to interim analysis 1, there were 2 treatment regimens.
Safety was assessed continuously by the investigator and based on medical review of AE reports and the results of vital sign measurements, physical examinations, clinical laboratory tests, ECOG performance status, and other safety evaluations.
Safety data are presented for the safety population (N=207, enrolled between May 7, 2015, and Dec. 5, 2017), defined as patients who received at least 1 dose of study treatment.
An analysis was done on 99 NCT02365597 patients who received the dose regimen of 8 mg/day continuous (pharmacodynamically guided uptitrated to 9 mg/d per serum phosphate as described herein, Regimen 3) to explore efficacy among high-risk patients. […] High-risk patients are defined as patients meeting one or more of the following criteria: • age ≥75 years; • ECOG PS 2 (Eastern Cooperative Oncology Group Performance Status 2; Oken M, Creech R, Tormey D, et al. Toxicity and response criteria of the Eastern Cooperative Oncology Group. Am J Clin Oncol. 1982; 5:649-655) • hemoglobin <10 g/dL; • visceral metastases of the liver, lung and/or bone; • 2 or 3 Bellmunt risk factors (Bellmunt J, Choueiri T K, Fougeray R, et al: Prognostic factors in patients with advanced transitional cell carcinoma of the urothelial tract experiencing treatment failure with platinum-containing regimens.
Final analysis for NCT02365597 was conducted, per protocol 12 months after the last subject was enrolled.

Structure (SMILES): COc1cc(OC)cc(N(CCNC(C)C)c2ccc3ncc(-c4cnn(C)c4)nc3c2)c1 [erdafitinib, N-(3,5-dimethoxyphenyl)-N′-(1-methylethyl)-N-[3-(1-methyl-1H-pyrazol-4-yl)quinoxalin-6-yl]ethane-1,2-diamine]
- TRAE Nail dystrophy, Grade ≥3 [1]: 0 n
- TRAE Palmar-plantar erythrodysaesthesia syndrome, Grade ≥3 [1]: 0 n
- TRAE Paronychia, Grade ≥3 [1]: 0 n
- treatment-related deaths (across all dose regimens (N = 207)): no treatment-related deaths
- treatment-related deaths (final analysis, 101 patients): no treatment-related deaths
- CSR events resolved on the data cut-off date (human, in vivo): 63%
- CSR events resolved on the data cut-off date, n/N (human, in vivo): 17/27
- CSR events that were Grade 1 or 2 (human, in vivo): 85%
- CSR events that were Grade 1 or 2, n/N (human, in vivo): 23/27
- Treatment discontinuation rates for adverse events (human, in vivo): approximately 20%
- dosage discontinued for CSR (human, in vivo): 3 patients
- dosage interrupted for CSR (human, in vivo): 8 patients
- dosage reduced for CSR (human, in vivo): 13 patients
- grade 3/4 serious adverse events proportions by subgroup, range (human, in vivo): 26.7-36.4%
- ongoing CSR events that were Grade 1 (human, in vivo): 60%
- ongoing CSR events that were Grade 1, n/N (human, in vivo): 6/10
- patients reporting retinopathy (human, in vivo): 2 patients
- patients reporting retinopathy, grade 2 (human, in vivo): 1 n
- patients reporting retinopathy, grade 3 (human, in vivo): 1 n
- patients with Central serous retinopathy (CSR) events (human, in vivo): 27%
- patients with Central serous retinopathy (CSR) events, n/N (human, in vivo): 27/101
